Reference: the NIST ThermoML archive (doi:10.1021/je101012n)

Experiment: mn = molality of the nth substance listed, in mol/kg
Settings: 101 kPa, Liquid, Alternating current cell with electrodes

[Cl][Fe][Cl] [ferrous chloride] + O
electrical conductivity [S/m]
Settings | 278.1 K | 283.1 K | 298.15 K | 308.15 K | 318.15 K | 343.15 K | 363.15 K
m1 = 9e-05 | 0.3365 | 0.3724 | 0.4835 | 0.5486 | 0.6142 | 0.7702 | 0.8954
m1 = 0.000726 | 0.3437 | 0.3802 | 0.494 | 0.5646 | 0.635 | 0.8025 | 0.9282
m1 = 0.00908 | 0.4397 | 0.4997 | 0.6568 | 0.7661 | 0.8715 | 1.148 | 1.354
m1 = 0.1169 | 1.6 | 1.807 | 2.494 | 3.003 | 3.516 | 4.889 | 5.966

Cl [hydrogen chloride] + O
electrical conductivity [S/m]
Settings | 278.15 K | 283.15 K | 298.15 K | 308.15 K | 318.15 K | 343.15 K | 363.15 K
m1 = 0.00011 | 0.003313 | 0.003683 | 0.004665 | 0.00531 | 0.005973 | 0.007487 | 0.008461
m1 = 0.000958 | 0.028 | 0.03088 | 0.03978 | 0.04565 | 0.05121 | 0.06414 | 0.07325
m1 = 0.00937 | 0.2714 | 0.3001 | 0.3869 | 0.4408 | 0.4932 | 0.6227 | 0.7132
m1 = 0.09398 | 2.604 | 2.872 | 3.684 | 4.19 | 4.673 | 5.872 | 6.722
m1 = 0.4603 | 11.98 | 13.14 | 16.69 | 18.97 | 21.09 | 26.23 | 29.87
m1 = 0.85 | 20.2 | 22.06 | 27.9 | 31.53 | 34.95 | 43.45 | 48.24

Cl.N [ammonium chloride (NH4Cl)] + O
electrical conductivity [S/m]
Settings | 278.15 K | 283.15 K | 298.15 K | 308.15 K | 318.15 K | 343.15 K | 363.15 K
m1 = 0.000977 | 0.008892 | 0.01017 | 0.01441 | 0.01738 | 0.02024 | 0.0287 | 0.03591
m1 = 0.00965 | 0.0856 | 0.09786 | 0.1381 | 0.1671 | 0.1938 | 0.2731 | 0.3363
m1 = 0.09765 | 0.7999 | 0.9148 | 1.276 | 1.545 | 1.801 | 2.535 | 3.142
m1 = 0.4735 | 3.542 | 4.027 | 5.525 | 6.577 | 7.691 | 10.75 | 13.26
m1 = 1.034 | 7.301 | 8.293 | 11.12 | 13.13 | 15.36 | 21.55 | 25.35

[Cl-].[Li+] [lithium chloride] + O
electrical conductivity [S/m]
Settings | 278.15 K | 283.15 K | 298.15 K | 308.15 K | 318.15 K | 343.15 K | 363.15 K
m1 = 8.5e-05 | 0.0005986 | 0.0006826 | 0.0009588 | 0.00117 | 0.001388 | 0.001978 | 0.002483
m1 = 0.000952 | 0.006496 | 0.007487 | 0.01069 | 0.01311 | 0.01528 | 0.02191 | 0.02774
m1 = 0.00845 | 0.05562 | 0.06414 | 0.09167 | 0.1123 | 0.1315 | 0.1886 | 0.2366
m1 = 0.09523 | 0.5516 | 0.6326 | 0.9019 | 1.099 | 1.276 | 1.809 | 2.257
m1 = 0.9613 | 4.317 | 4.986 | 7.13 | 8.35 | 9.794 | 12.64 | 15.57

O=C([O-])O.[K+] [potassium bicarbonate] + O
electrical conductivity [S/m]
Settings | 278.15 K | 283.15 K | 298.15 K | 308.15 K | 318.15 K | 343.15 K | 363.15 K
m1 = 0.001 | 0.007403 | 0.00834 | 0.01179 | 0.01416 | 0.01673 | 0.02401 | 0.03038
m1 = 0.00992 | 0.0687 | 0.07877 | 0.1107 | 0.1335 | 0.1573 | 0.2237 | 0.2794
m1 = 0.09998 | 0.6141 | 0.7003 | 0.9852 | 1.176 | 1.383 | 1.963 | 2.446
m1 = 0.5001 | 2.664 | 3.031 | 4.206 | 5.066 | 5.94 | 8.391 | 10.49
m1 = 0.9999 | 4.748 | 5.358 | 7.365 | 8.802 | 10.31 | 14.3 | 17.93

[Cl-].[Cl-].[Sr+2] [strontium chloride] + O
electrical conductivity [S/m]
Settings | 278.15 K | 283.15 K | 298.15 K | 308.15 K | 318.15 K | 343.15 K | 363.15 K
m1 = 0.000125 | 0.002084 | 0.002384 | 0.003331 | 0.003972 | 0.004689 | 0.00678 | 0.00842
m1 = 0.00141 | 0.02222 | 0.02538 | 0.03603 | 0.04353 | 0.05151 | 0.07369 | 0.09235
m1 = 0.012 | 0.1807 | 0.2072 | 0.2926 | 0.3531 | 0.4164 | 0.5927 | 0.7383
m1 = 0.1313 | 1.663 | 1.892 | 2.646 | 3.174 | 3.719 | 5.229 | 6.184
m1 = 0.3891 | 4.194 | 4.751 | 6.457 | 7.797 | 9.074 | 12.51 | 15.38

O=[N+]([O-])[O-].O=[N+]([O-])[O-].O=[N+]([O-])[O-].[Fe+3] [ferric nitrate] + O
electrical conductivity [S/m]
Settings | 278.1 K | 283.1 K | 298.15 K | 308.15 K | 318.15 K | 343.15 K | 363.15 K
m1 = 9.9e-05 | – | – | – | – | – | 9.086 | 10.27
m1 = 0.000984 | – | – | – | – | – | 9.106 | 10.33
m1 = 0.00985 | – | – | – | – | – | 9.553 | 10.91
m1 = 0.09618 | 5.143 | 5.777 | 7.576 | 8.788 | 10.15 | 13.85 | 16.52
m1 = 0.2534 | 6.656 | 7.523 | 9.984 | 11.83 | 14.02 | 20.32 | –

O=S(=O)([O-])[O-].[K+].[K+] [potassium sulfate] + O
electrical conductivity [S/m]
Settings | 278.15 K | 283.15 K | 298.15 K | 308.15 K | 318.15 K | 343.15 K | 363.15 K
m1 = 0.000102 | 0.001969 | 0.002257 | 0.003175 | 0.003884 | 0.004575 | 0.006401 | 0.00794
m1 = 0.00105 | 0.01881 | 0.02141 | 0.03006 | 0.03611 | 0.04268 | 0.06018 | 0.07466
m1 = 0.01061 | 0.1685 | 0.1919 | 0.2675 | 0.3216 | 0.3765 | 0.5269 | 0.6441
m1 = 0.1048 | 1.341 | 1.523 | 2.11 | 2.516 | 2.94 | 4.064 | 4.957
m1 = 0.2029 | 2.362 | 2.672 | 3.705 | 4.409 | 5.138 | 7.099 | 8.722
m1 = 0.4783 | 5.151 | 5.78 | 7.801 | 9.298 | 10.8 | 14.91 | 17.97
